According to PubChem BioAssay (NCI):
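In this assay, cells in 96-well plates receive the compound at five concentrations for 48 hours. Endpoints are linearly interpolated between the surrounding concentrations. At the GI50, growth is halved. TGI marks complete inhibition of growth.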

Assays:
Experiment in all cases: DTP human tumour cell line panel, 48 h
786-0 renal = tested on: 786-0 renal
A498 renal = tested on: A498 renal
A549 NSCLC = tested on: A549 NSCLC
BT-549 breast = tested on: BT-549 breast
CAKI-1 renal = tested on: CAKI-1 renal
CCRF-CEM leukemia = tested on: CCRF-CEM leukemia
COLO 205 colon = tested on: COLO 205 colon
DU-145 prostate = tested on: DU-145 prostate
EKVX NSCLC = tested on: EKVX NSCLC
HCT-116 colon = tested on: HCT-116 colon
HCT-15 colon = tested on: HCT-15 colon
HL-60(TB) leukemia = tested on: HL-60(TB) leukemia
HOP-62 NSCLC = tested on: HOP-62 NSCLC
HS 578T breast = tested on: HS 578T breast
HT29 colon = tested on: HT29 colon
IGROV1 ovarian = tested on: IGROV1 ovarian
K-562 leukemia = tested on: K-562 leukemia
KM12 colon = tested on: KM12 colon
LOX IMVI melanoma = tested on: LOX IMVI melanoma
M14 melanoma = tested on: M14 melanoma
MALME-3M melanoma = tested on: MALME-3M melanoma
MCF7 breast = tested on: MCF7 breast
MDA-MB-231 breast = tested on: MDA-MB-231 breast
MDA-MB-435 = tested on: MDA-MB-435
MOLT-4 leukemia = tested on: MOLT-4 leukemia
NCI-H226 lung = tested on: NCI-H226 lung
NCI-H23 lung = tested on: NCI-H23 lung
NCI-H460 lung = tested on: NCI-H460 lung
NCI-H522 lung = tested on: NCI-H522 lung
NCI/ADR-RES ovarian = tested on: NCI/ADR-RES ovarian
OVCAR-3 ovarian = tested on: OVCAR-3 ovarian
OVCAR-4 ovarian = tested on: OVCAR-4 ovarian
OVCAR-8 ovarian = tested on: OVCAR-8 ovarian
PC-3 prostate = tested on: PC-3 prostate
RPMI-8226 leukemia = tested on: RPMI-8226 leukemia
RXF 393 renal = tested on: RXF 393 renal
SF-268 CNS = tested on: SF-268 CNS
SF-295 CNS = tested on: SF-295 CNS
SF-539 CNS = tested on: SF-539 CNS
SK-MEL-28 melanoma = tested on: SK-MEL-28 melanoma
SK-OV-3 ovarian = tested on: SK-OV-3 ovarian
SN12C renal = tested on: SN12C renal
SNB-19 CNS = tested on: SNB-19 CNS
SNB-75 CNS = tested on: SNB-75 CNS
SR leukemia = tested on: SR leukemia
SW-620 colon = tested on: SW-620 colon
T-47D breast = tested on: T-47D breast
TK-10 renal = tested on: TK-10 renal
U251 CNS = tested on: U251 CNS
UACC-257 melanoma = tested on: UACC-257 melanoma
UACC-62 melanoma = tested on: UACC-62 melanoma
UO-31 renal = tested on: UO-31 renal
ACHN renal = tested on: ACHN renal
HCC-2998 colon = tested on: HCC-2998 colon
HOP-92 NSCLC = tested on: HOP-92 NSCLC
OVCAR-5 ovarian = tested on: OVCAR-5 ovarian
SK-MEL-2 melanoma = tested on: SK-MEL-2 melanoma
SK-MEL-5 melanoma = tested on: SK-MEL-5 melanoma

Question: Which TGI (786-0 renal) does the source give for `CC(=O)c1nc2ccccc2n1CC(=O)c1ccc([N+](=O)[O-])cc1` here?
Answer: 15.9 µM

Question: And the TGI (A498 renal)?
Answer: > 100 µM

Question: What about the TGI (A549 NSCLC) of the same compound?
Answer: 37.6 µM

Question: And the TGI (BT-549 breast)?
Answer: 52.6 µM

Question: And the TGI (CAKI-1 renal)?
Answer: 53.7 µM

Question: What about the TGI (CCRF-CEM leukemia) of the same compound?
Answer: > 100 µM

Question: What about the TGI (COLO 205 colon) of the same compound?
Answer: > 100 µM

Question: And the TGI (DU-145 prostate)?
Answer: > 100 µM

Question: And the TGI (EKVX NSCLC)?
Answer: > 100 µM

Question: What about the TGI (HCT-116 colon) of the same compound?
Answer: 25.1 µM

Question: And the TGI (HCT-15 colon)?
Answer: > 100 µM

Question: And the TGI (HL-60(TB) leukemia)?
Answer: > 100 µM

Question: And the TGI (HOP-62 NSCLC)?
Answer: 17.6 µM

Question: What about the TGI (HS 578T breast) of the same compound?
Answer: 28.9 µM

Question: And the TGI (HT29 colon)?
Answer: 46 µM

Question: What about the TGI (IGROV1 ovarian) of the same compound?
Answer: 14.5 µM

Question: And the TGI (K-562 leukemia)?
Answer: > 100 µM

Question: What about the TGI (KM12 colon) of the same compound?
Answer: 47.3 µM

Question: And the TGI (LOX IMVI melanoma)?
Answer: 23.2 µM

Question: And the TGI (M14 melanoma)?
Answer: > 100 µM

Question: And the TGI (MALME-3M melanoma)?
Answer: 33.2 µM

Question: What about the TGI (MCF7 breast) of the same compound?
Answer: 58.8 µM

Question: What about the TGI (MDA-MB-231 breast) of the same compound?
Answer: > 100 µM

Question: What about the TGI (MDA-MB-435) of the same compound?
Answer: > 100 µM

Question: What about the TGI (MOLT-4 leukemia) of the same compound?
Answer: 84.5 µM

Question: And the TGI (NCI-H226 lung)?
Answer: 57.9 µM

Question: And the TGI (NCI-H23 lung)?
Answer: > 100 µM

Question: What about the TGI (NCI-H460 lung) of the same compound?
Answer: 68.6 µM

Question: And the TGI (NCI-H522 lung)?
Answer: 15.7 µM

Question: And the TGI (NCI/ADR-RES ovarian)?
Answer: 49.2 µM

Question: What about the TGI (OVCAR-3 ovarian) of the same compound?
Answer: 35.4 µM

Question: What about the TGI (OVCAR-4 ovarian) of the same compound?
Answer: > 100 µM

Question: And the TGI (OVCAR-8 ovarian)?
Answer: 21 µM

Question: What about the TGI (PC-3 prostate) of the same compound?
Answer: 44.4 µM

Question: What about the TGI (RPMI-8226 leukemia) of the same compound?
Answer: > 100 µM

Question: What about the TGI (RXF 393 renal) of the same compound?
Answer: > 100 µM

Question: And the TGI (SF-268 CNS)?
Answer: > 100 µM

Question: And the TGI (SF-295 CNS)?
Answer: 36.1 µM

Question: And the TGI (SF-539 CNS)?
Answer: > 100 µM

Question: What about the TGI (SK-MEL-28 melanoma) of the same compound?
Answer: > 100 µM

Question: What about the TGI (SK-OV-3 ovarian) of the same compound?
Answer: > 100 µM

Question: And the TGI (SN12C renal)?
Answer: > 100 µM

Question: And the TGI (SNB-19 CNS)?
Answer: 74.2 µM

Question: What about the TGI (SNB-75 CNS) of the same compound?
Answer: > 100 µM

Question: And the TGI (SR leukemia)?
Answer: > 100 µM

Question: And the TGI (SW-620 colon)?
Answer: 41.6 µM

Question: What about the TGI (T-47D breast) of the same compound?
Answer: > 100 µM

Question: What about the TGI (TK-10 renal) of the same compound?
Answer: > 100 µM

Question: And the TGI (U251 CNS)?
Answer: 19.9 µM

Question: And the TGI (UACC-257 melanoma)?
Answer: > 100 µM

Question: What about the TGI (UACC-62 melanoma) of the same compound?
Answer: 60.9 µM

Question: And the TGI (UO-31 renal)?
Answer: 45.9 µM

Question: What does the source list for `C=C1C(=O)O[C@H]2[C@H]1CC/C(COC(=O)CCC(=O)OC/C1=C/CC[C@@]3(C)O[C@H]3[C@H]3OC(=O)C(=C)[C@@H]3CC1)=C\CC[C@@]1(C)O[C@@H]21`?
Answer: GI50 (786-0 renal): 1.46 µM; TGI (786-0 renal): 3.12 µM; GI50 (A498 renal): 10.5 µM; TGI (A498 renal): 23.6 µM; GI50 (A549 NSCLC): 13.7 µM; TGI (A549 NSCLC): 30 µM; GI50 (ACHN renal): 0.753 µM; TGI (ACHN renal): 2.03 µM; GI50 (BT-549 breast): 1.4 µM; TGI (BT-549 breast): 2.83 µM; GI50 (CCRF-CEM leukemia): 0.251 µM; TGI (CCRF-CEM leukemia): 0.778 µM; GI50 (COLO 205 colon): 0.455 µM; TGI (COLO 205 colon): 1.74 µM; GI50 (DU-145 prostate): 1.71 µM; TGI (DU-145 prostate): 3.53 µM; GI50 (EKVX NSCLC): 2.55 µM; TGI (EKVX NSCLC): 11.6 µM; GI50 (HCC-2998 colon): 2.13 µM; TGI (HCC-2998 colon): 4.4 µM; GI50 (HCT-15 colon): 1.54 µM; TGI (HCT-15 colon): 3.58 µM; GI50 (HL-60(TB) leukemia): 0.233 µM; TGI (HL-60(TB) leukemia): 0.812 µM; GI50 (HOP-62 NSCLC): 3.21 µM; TGI (HOP-62 NSCLC): 10.6 µM; GI50 (HOP-92 NSCLC): 0.71 µM; TGI (HOP-92 NSCLC): 2.38 µM; GI50 (HS 578T breast): 2.74 µM; TGI (HS 578T breast): 16 µM; GI50 (HT29 colon): 1.46 µM; TGI (HT29 colon): 3.03 µM; GI50 (IGROV1 ovarian): 2.26 µM; TGI (IGROV1 ovarian): 8.83 µM; GI50 (K-562 leukemia): 0.531 µM; TGI (K-562 leukemia): 4.34 µM; GI50 (KM12 colon): 3.88 µM; TGI (KM12 colon): 16.6 µM; GI50 (LOX IMVI melanoma): 1.37 µM; TGI (LOX IMVI melanoma): 2.75 µM; GI50 (M14 melanoma): 1.6 µM; TGI (M14 melanoma): 5.32 µM; GI50 (MALME-3M melanoma): 1.14 µM; TGI (MALME-3M melanoma): 2.88 µM; GI50 (MDA-MB-231 breast): 1.65 µM; TGI (MDA-MB-231 breast): 3.72 µM; GI50 (MDA-MB-435): 1.84 µM; TGI (MDA-MB-435): 4.65 µM; GI50 (MOLT-4 leukemia): 0.561 µM; TGI (MOLT-4 leukemia): 2.8 µM; GI50 (NCI-H226 lung): 2.46 µM; TGI (NCI-H226 lung): 11.7 µM; GI50 (NCI-H23 lung): 2.9 µM; TGI (NCI-H23 lung): 11.2 µM; GI50 (NCI-H460 lung): 4.48 µM; TGI (NCI-H460 lung): 17.2 µM; GI50 (NCI-H522 lung): 1.43 µM; TGI (NCI-H522 lung): 3.07 µM; GI50 (NCI/ADR-RES ovarian): 14 µM; TGI (NCI/ADR-RES ovarian): 40.5 µM; GI50 (OVCAR-3 ovarian): 0.599 µM; TGI (OVCAR-3 ovarian): 1.91 µM; GI50 (OVCAR-4 ovarian): 2.07 µM; TGI (OVCAR-4 ovarian): 5.9 µM; GI50 (OVCAR-5 ovarian): 2.13 µM; TGI (OVCAR-5 ovarian): 6.03 µM; GI50 (OVCAR-8 ovarian): 2.75 µM; TGI (OVCAR-8 ovarian): 10.4 µM; GI50 (PC-3 prostate): 2.58 µM; TGI (PC-3 prostate): 7.86 µM; GI50 (RPMI-8226 leukemia): 1.22 µM; TGI (RPMI-8226 leukemia): 4.16 µM; GI50 (RXF 393 renal): 0.661 µM; TGI (RXF 393 renal): 2.17 µM; GI50 (SF-268 CNS): 3.18 µM; TGI (SF-268 CNS): 14 µM; GI50 (SF-295 CNS): 10.5 µM; TGI (SF-295 CNS): 25.3 µM; GI50 (SF-539 CNS): 1.95 µM; TGI (SF-539 CNS): 5.58 µM; GI50 (SK-MEL-2 melanoma): 2.89 µM; TGI (SK-MEL-2 melanoma): 9.38 µM; GI50 (SK-MEL-28 melanoma): 1.53 µM; TGI (SK-MEL-28 melanoma): 3.97 µM; GI50 (SK-MEL-5 melanoma): 2.05 µM; TGI (SK-MEL-5 melanoma): 5.27 µM; GI50 (SK-OV-3 ovarian): 23.1 µM; TGI (SK-OV-3 ovarian): 84.8 µM; GI50 (SN12C renal): 2.04 µM; TGI (SN12C renal): 6.63 µM; GI50 (SNB-19 CNS): 8.46 µM; TGI (SNB-19 CNS): 25 µM; GI50 (SNB-75 CNS): 15.1 µM; TGI (SNB-75 CNS): 45.7 µM; GI50 (SR leukemia): 0.345 µM; TGI (SR leukemia): 2.52 µM; GI50 (SW-620 colon): 0.602 µM; TGI (SW-620 colon): 2.1 µM; GI50 (T-47D breast): 1.06 µM; TGI (T-47D breast): 3.67 µM; GI50 (TK-10 renal): 1.75 µM; TGI (TK-10 renal): 3.38 µM; GI50 (U251 CNS): 2.78 µM; TGI (U251 CNS): 9.18 µM; GI50 (UACC-257 melanoma): 1.52 µM; TGI (UACC-257 melanoma): 3.39 µM; GI50 (UACC-62 melanoma): 1.86 µM; TGI (UACC-62 melanoma): 6.55 µM; GI50 (UO-31 renal): 1.02 µM; TGI (UO-31 renal): 2.39 µM
